Like-named read-outs stand apart in the source and are kept apart here.
Assays:
[1] = tested on: single stranded DNA (ssDNA); test: DNA probe assay control with single stranded DNA; type: binding; settings: control experiments
Experimental: (§1) Reaction conditions: dsDNA ([…] final concentration) in 100 mM TRIS, 1 mM EDTA, pH 8 was mixed with 3.7 molar equivalents of IGN-01 (compound 18), IGN-02 (compound 19), or IGN-09 (compound 15) dissolved in acetonitrile (final acetonitrile concentration <2% by volume). The reaction was incubated at 15° C. (below TM of the dsDNA) and 10 μl aliquots are injected on reverse phase-HPLC at various time points after mixing
(§2) HPLC conditions: Waters Xbridge C8 2.1×50 mm column, Buffer A: 100 mM hexafluoroisopropanol, 16.3 mM triethylamine, in water, Buffer B: Methanol; 98% A→100% B over 32 min, 0.25 ml/min flow, 60° C. column heat, 260 nm detection. Areas under the curve (AUC) for the probe DNA peak and the resulting IGN/DNA adduct peak are used to determine the % crosslinking at each time point of incubation.
(§3) DNA annealing: single stranded DNA (Invitrogen) was annealed into dsDNA using a Peltier thermal cycler (PTC-200, MJ Research). 1 mM DNA in 100 mM TRIS, 1 mM EDTA pH 8 was heated to 80° C. and then gradually cooled to 4° C. over 90 min in 15 degree steps. The resulting dsDNA was kept at 4° C. until used in the assay.

[2] = tested on: double stranded DNA (dsDNA); test: DNA probe assay for IGN dimer binding and alkylation to double stranded DNA; settings: for binding and covalent adduct formation with double stranded DNA: dsDNA containing guanine residues on opposite strands
Experimental: as §1, §2, §3

Ramos cells = test: In vitro cytotoxicity, Ramos cells; type: cell-based; settings: Homo sapiens, read-out: IC50, in vitro antiproliferative activity
Text: (§4) The in vitro cytotoxicity of the cytotoxic compounds (e.g., indolinobenzodiazepine or oxazolidinobenzodiazepine), derivatives thereof, dimers thereof or conjugates thereof of the present invention can be evaluated for their ability to suppress proliferation of various cancerous cell lines in vitro (Tables 1, 2 in FIGS. 31, 32.). For example, cell lines such as the human breast carcinoma line SK-Br-3, or the human epidermoid carcinoma cell line KB, can be used for the assessment of cytotoxicity of these new compounds. Cells to be evaluated can be exposed to the compounds for 72 hours and the surviving fractions of cells measured in direct assays by known methods. IC50 values can then be calculated from the results of the assays.
(§5) Conjugates of cell-binding agents with cytotoxic agents of the invention can be evaluated for their ability to suppress proliferation of various unwanted cell lines in vitro. For example, cell lines such as the human colon carcinoma line COLO 205, the rhabdomyosarcoma cell line RH-30, and the multiple myeloma cell line MOLP-8 can be used for the assessment of cytotoxicity of these conjugates. Cells to be evaluated can be exposed to the compounds for 1-5 days and the surviving fractions of cells measured in direct assays by known methods. IC50 values can then be calculated from the results of the assays.
General Procedure Used: Samples of IGN Free Drugs or IGN Conjugates were added to 96-well flat bottomed tissue culture plates and titrated using serial dilutions to cover the desired molar range. Antigen positive (Ag+) or Antigen negative (Ag−) cells were added to the wells in specific cell densities in such a way that there were triplicate samples for each drug concentration for each corresponding cell line. The plates were then incubated at 37° C. in an atmosphere of 5% CO2 for 4-5 days depending on the cell line. COLO 205 (1,000 cells/well), Namalwa (3,000 cells/well)—4 days; RH30(1,000 cells/well), Ramos (10,000 cells/well), KB (1,000 cells/well)—5 days)
(§6) At the end of the incubation period cytotoxic potencies were then assessed using a WST-based cell viability assay and surviving cells were measured by developing with WST (2-7 hours). The absorbance in each well was measured and the surviving fraction of cells at each concentration was plotted to reveal the cytotoxicity and antigen specificity (of the conjugates).

COLO205-MDR = test: In vitro cytotoxicity, multi-drug resistant COLO 205 MDR cells; type: cell-based, human; settings: free compound; multi-drug resistant line vs COLO205
Text: as §4
Conjugates of cell-binding agents with cytotoxic agents of the invention can be evaluated for their ability to suppress proliferation of various unwanted cell lines in vitro. […] Cells to be evaluated can be exposed to the compounds for 1-5 days and the surviving fractions of cells measured in direct assays by known methods. IC50 values can then be calculated from the results of the assays. […]
At the end of the incubation period cytotoxic potencies were then assessed using a WST-based cell viability assay and surviving cells were measured by developing with WST (2-7 hours). […]

RH30 cells = test: In vitro cytotoxicity of conjugates, RH30 cells; type: cell-based, human
Text: as §5
General Procedure Used: Samples of IGN Free Drugs or IGN Conjugates were added to 96-well flat bottomed tissue culture plates and titrated using serial dilutions to cover the desired molar range. Antigen positive (Ag+) or Antigen negative (Ag−) cells were added to the wells in specific cell densities in such a way that there were triplicate samples for each drug concentration for each corresponding cell line. […]
as §6

COc1cc2c(cc1OCc1cccc(COc3cc4c(cc3OC)C(=O)N3COC[C@H]3C=N4)c1)N=C[C@@H]1COCN1C2=O [IGN-02]
covalent adduct formation with single stranded DNA [1]: did not form covalent adducts
binding and covalent adduct formation with double stranded DNA [2]: bind and covalently adduct

COC(=O)CCCCOc1cc(COc2cc3c(cc2OC)C(=O)N2c4ccccc4C[C@H]2C=N3)cc(COc2cc3c(cc2OC)C(=O)N2c4ccccc4C[C@H]2C=N3)c1 [IGN03]
IC50 (Ramos cells; Ramos): < 1 pM

COC(=O)COc1cc(COc2cc3c(cc2OC)C(=O)N2c4ccccc4C[C@H]2C=N3)cc(COc2cc3c(cc2OC)C(=O)N2c4ccccc4C[C@H]2C=N3)c1 [IGN05]
IC50 (Ramos cells; Ramos): < 1 pM

COc1cc2c(cc1OCCCOc1cc3c(cc1OC)C(=O)N1c4ccccc4C[C@H]1C=N3)N=C[C@@H]1Cc3ccccc3N1C2=O [IGN-09]
covalent adduct formation with single stranded DNA [1]: did not form covalent adducts
binding and covalent adduct formation with double stranded DNA [2]: bind and covalently adduct
IC50 (Ramos cells; Ramos): < 1 pM
fold higher IC50 on COLO205-MDR than COLO205 (COLO205-MDR): 4 fold

COc1cc2c(cc1OCc1cccc(COc3cc4c(cc3OC)C(=O)N3c5ccccc5C[C@H]3C=N4)c1)N=C[C@@H]1Cc3ccccc3N1C2=O [IGN-01]
covalent adduct formation with single stranded DNA [1]: did not form covalent adducts
rate of DNA binding, dependence on DNA sequence ([2]; DNA with internal GATC motif vs GTAC sequence): binds faster to DNA containing an internal GATC motif
binding and covalent adduct formation with double stranded DNA [2]: bind and covalently adduct
reaction with DNA probe substituted with deoxyInosine in place of guanine ([2]; probe containing no C-2 amino group): no reaction
IC50 (Ramos cells; free compounds with and without linker, Ramos cell line (Table 2)): < 1 pM

B1: huN901-IGN03 (conjugate, chains of the INN, looked up)
VH: QVQLVESGGGVVQPGRSLRLSCAASGFTFSSFGMHWVRQAPGKGLEWVAYISSGSFTIYYADSVKGRFTISRDNSKNTLYLQMNSLRAEDTAVYYCARMRKGYAMDYWGQGTLVTVSS
VL: DVVMTQSPLSLPVTLGQPASISCRSSQIIIHSDGNTYLEWFQQRPGQSPRRLIYKVSNRFSGVPDRFSGSGSGTDFTLKISRVEAEDVGVYYCFQGSHVPHTFGQGTKVEIK
modifications: IGN03 indolinobenzodiazepine payload
IC50 (RH30 cells; RH30 cells with an excess of unconjugated huN901 antibody): > 3000 pM
IC50 (RH30 cells; antigen positive RH30 cells): 15 pM
